From US20140328757A1, “COMPOSITIONS COMPRISING ASCORBIC ACID AND AN IMAGING AGENT AND RELATED METHODS” (Lantheus Medical Imaging, Inc., priority 2011, published 2014)
Values belong to the molecule of their own block, whether it stands above or below them.

Columns and labels:
[1] = pH and the chemical integrity (rate of non-radioactive impurity formation) of the non-radioactive congener; format: physicochemical; settings: ascorbic acid 50 mg/mL, congener 5 μg/mL, ethanol 5%, treated with [18F]NaF
Description: (§1) Both chemical integrity and overall stability of a radiopharmaceutical composition is measured through determination of the change in RCP of the labeled compound over time using ITLC or more preferably HPLC. The advantage of using HPLC is that impurities caused by radiolytic degradation may be readily separated from the labeled compound under certain chromatographic conditions. […] Several HPLC methods have been developed for monitoring the stability of radiopharmaceutical compositions of the present invention:
(§2) Analytical HPLC was performed on an Agilent Technologies 1100 LC containing a spectrophotometric detection system. Non-radiochemical impurities were evaluated at 295 nm using a Waters Zorbax SB-C18 column (4.6×50 mm, 1.8 μm) with an 8%/min gradient from 20-100% MeCN containing 0.1% formic acid and 10% H2O at 1 mL/min
The chemical integrity of radiopharmaceutical compositions containing the non-radioactive congener of the imaging agent (2-(tert-butyl)-4-chloro-5-((4-((2-fluoroethoxy)methyl)benzyl)oxy)pyridazin-3(2H)-one) was assessed over a range of pH values. […] The resulting solutions were treated with [^18F]NaF then monitored for changes in chemical purity (non-radioactive impurities) over time using the HPLC methods outlined in Example 5.

[2] = cited from earlier work
[3] = pH and the stability (radiochemical purity over time) of an imaging agent; format: physicochemical; settings: ascorbic acid solutions with higher pH values (pH 5.8 and 6.5) versus more acidic compositions (pH 2.4-4.6)
Description: (§3) was then collected, diluted with an ascorbic acid solution (10-15 mL), then passed through a C18 Sep-Pak® cartridge, previously conditioned with 10 mL of ethanol followed by 10 mL of an ascorbic acid solution; The imaging agent was retained within the C18 resin matrix and the filtrate discarded. The cartridge was then successively washed with an ascorbic acid solution (10 mL), the filtrate discarded, then absolute ethanol (≦0.5 mL) and the filtrate collected. The resulting ethanol concentrate of the imaging agent was then diluted with an ascorbic acid solution prior to use.
(§4) Both chemical integrity and overall stability of a radiopharmaceutical composition is measured through determination of the change in RCP of the labeled compound over time using ITLC or more preferably HPLC. The advantage of using HPLC is that impurities caused by radiolytic degradation may be readily separated from the labeled compound under certain chromatographic conditions. […]
Analytical HPLC was performed on an Agilent Technologies 1100 LC containing a radiometric detection system. Radiochemical impurities were evaluated using a Berthold radiation detector and a Waters Zorbax SB-C18 column (4.6×50 mm, 1.8 μm) using an isocratic elution (45:55 H2O/MeCN) at 1 mL/min […]
The stability of radiopharmaceutical compositions containing an imaging agent was assessed over a range of pH values. […]

[4] = Stability (radiochemical purity over time by HPLC) of radiopharmaceutical compositions over a range of ascorbic acid and radioactivity concentrations; format: physicochemical; settings: pH 5.8
Text: The radiochemical purity (RCP) of a labeled compound (i.e., as in Example 3) is known to be dependent on certain conditions of its preparation including, but not limited to, reaction temperature, solution pH and overall synthesis time. Once prepared with high RCP, the labeled compound is formulated into a radiopharmaceutical composition designed to stabilize the labeled compound over time. Certain radiopharmaceutical compositions of the present invention are effective in maintaining the stability of labeled compounds for up to 12 h.
as §1
Analytical HPLC was performed on an Agilent Technologies 1100 LC containing a radiometric detection system. Radiochemical impurities were evaluated using a Berthold radiation detector and a Waters Zorbax SB-C18 column (4.6×50 mm, 1.8 μm) using an isocratic elution (45:55 H2O/MeCN) at 1 mL/min
as §2
Analytical HPLC was performed on an Agilent Technologies 1100 LC containing both radiometric and spectrophotometric detection systems. Radiochemical impurities were evaluated using a Raytest GabiStar radiation detector and non-radiochemical impurities were evaluated at 295 nm both using a Waters Zorbax SB-C18 column (4.6×50 mm, 1.8 μm) with a 6%/min gradient from 20-50% MeCN, followed by a 1.4%/min gradient from 50-60% MeCN, followed by a 2%/min gradient from 60-70% MeCN each containing 0.1% formic acid and 10% H2O at 1 mL/min.
Analytical HPLC was performed on an Agilent Technologies 1100 LC containing both radiometric and spectrophotometric detection systems. Radiochemical impurities were evaluated using a Raytest GabiStar radiation detector and non-radiochemical impurities were evaluated at 295 nm both using a Waters Zorbax SB-C18 column (4.6×50 mm, 1.8 μm) with a 30%/min gradient from 30-60% MeCN, followed by a 2 min isocratic hold at 60% MeCN, followed by a 5%/min gradient from 60-80% MeCN each containing 0.1% trifluoroacetic acid and 10% H2O at 1 mL/min
Aqueous [^18F]fluoride, as prepared in Example 1, was filtered through an anion exchange column to remove unreacted [^18O]H2O; [^18F]fluoride was retained within the […] resin matrix. The column was then washed with aqueous Et4NHCO3 with transfer to the reaction vessel. The resulting solution was diluted with MeCN then concentrated to dryness using elevated temperature and reduced pressure. The mixture of anhydrous [^18F]Et4NF and Et4NHCO3 thus obtained was treated with the acetonitrile solution of the imaging agent precursor as prepared in Example 2, then warmed to 85-120° C. and maintained 5-20 min. After cooling, the solution was diluted with H2O or H2O/MeCN then directly purified by HPLC using a 45:55 H2O/MeCN eluent. The main product peak was collected and diluted with ascorbic acid (10 mL of a 0.28 M solution; pH 2).
was retained within the C18 resin matrix and the filtrate discarded. The cartridge was successively washed with ascorbic acid (10 mL of a 0.28 M solution in H2O; pH 2), the filtrate discarded, then absolute EtOH (≦0.50 mL), and the filtrate collected. […]

[5] = Concentration of ascorbic acid and the stability (radiochemical purity over time) of an imaging agent; format: physicochemical; settings: pH 5.8
Description: as §3, §4
The stability of radiopharmaceutical compositions containing an imaging agent was assessed over a range of ascorbic acid concentration values. […] Each solution was then utilized in the preparation of the imaging agent described in Example 4, and the resulting compositions monitored for changes in radiochemical purity over time using the HPLC methods described in Example 5.

Reduction in the rate of impurity formation (non-radioactive impurities, FIG. 2) ([1]; over the pH range considered (4.0-8.2)): ten-fold reduction
Compound: CC(C)(C)n1ncc(OCc2ccc(COCCF)cc2)c(Cl)c1=O [2-(tert-butyl)-4-chloro-5-((4-((2-fluoroethoxy)methyl)benzyl)oxy)pyridazin-3(2H)-one]
Reaction order of formation of certain non-radioactive impurities (FIG. 2) [1]: first order

Compound: O=C1O[C@H]([C@@H](O)CO)C(O)=C1O [ascorbic acid]
pKa [2]: about 4.2

Radiochemical Purity ([4]; 0 h, ascorbic acid 30 mg/mL, 29.5 mCi/mL, Siemens GN module): 100.0% | Radiochemical Purity ([4]; 0 h, ascorbic acid 30 mg/mL, 68.0 mCi/mL, Eckert & Ziegler module): 100.0% | Radiochemical Purity ([4]; 0 h, ascorbic acid 50 mg/mL, 44.8 mCi/mL, Eckert & Ziegler module): 100.0% | Radiochemical Purity ([4]; 0 h, ascorbic acid 50 mg/mL, 47.0 mCi/mL, Siemens GN module): 100.0% | Radiochemical Purity ([4]; 0 h, ascorbic acid 50 mg/mL, 50.0 mCi/mL, Siemens RN module): 100.0% | Radiochemical Purity ([4]; 0 h, ascorbic acid 50 mg/mL, 65.4 mCi/mL, GE MX module): 100.0% | Radiochemical Purity ([4]; 0 h, ascorbic acid 50 mg/mL, 115.9 mCi/mL, Siemens GN module): 99.7% | Radiochemical Purity ([4]; 3 h, ascorbic acid 30 mg/mL, 29.5 mCi/mL, Siemens GN module): 100.0% | Radiochemical Purity ([4]; 3 h, ascorbic acid 30 mg/mL, 68.0 mCi/mL, Eckert & Ziegler module): 97.6% | Radiochemical Purity ([4]; 3 h, ascorbic acid 50 mg/mL, 44.8 mCi/mL, Eckert & Ziegler module): 100.0% | Radiochemical Purity ([4]; 3 h, ascorbic acid 50 mg/mL, 47.0 mCi/mL, Siemens GN module): 100.0% | Radiochemical Purity ([4]; 3 h, ascorbic acid 50 mg/mL, 50.0 mCi/mL, Siemens RN module): 98.2% | Radiochemical Purity ([4]; 3 h, ascorbic acid 50 mg/mL, 65.4 mCi/mL, GE MX module): 100.0% | Radiochemical Purity ([4]; 3 h, ascorbic acid 50 mg/mL, 115.9 mCi/mL, Siemens GN module): 97.1% | Radiochemical Purity ([4]; 6 h, ascorbic acid 30 mg/mL, 29.5 mCi/mL, Siemens GN module): 100.0% | Radiochemical Purity ([4]; 6 h, ascorbic acid 30 mg/mL, 68.0 mCi/mL, Eckert & Ziegler module): 96.7% | Radiochemical Purity ([4]; 6 h, ascorbic acid 50 mg/mL, 44.8 mCi/mL, Eckert & Ziegler module): 100.0% | Radiochemical Purity ([4]; 6 h, ascorbic acid 50 mg/mL, 47.0 mCi/mL, Siemens GN module): 99.2% | Radiochemical Purity ([4]; 6 h, ascorbic acid 50 mg/mL, 50.0 mCi/mL, Siemens RN module): 99.0% | Radiochemical Purity ([4]; 6 h, ascorbic acid 50 mg/mL, 65.4 mCi/mL, GE MX module): 98.7% | Radiochemical Purity ([4]; 6 h, ascorbic acid 50 mg/mL, 115.9 mCi/mL, Siemens GN module): 97.1% | Radiochemical Purity ([4]; 9 h, ascorbic acid 30 mg/mL, 29.5 mCi/mL, Siemens GN module): 100.0% | Radiochemical Purity ([4]; 9 h, ascorbic acid 30 mg/mL, 68.0 mCi/mL, Eckert & Ziegler module): 96.2% | Radiochemical Purity ([4]; 9 h, ascorbic acid 50 mg/mL, 44.8 mCi/mL, Eckert & Ziegler module): 100.0% | Radiochemical Purity ([4]; 9 h, ascorbic acid 50 mg/mL, 47.0 mCi/mL, Siemens GN module): 99.4% | Radiochemical Purity ([4]; 9 h, ascorbic acid 50 mg/mL, 50.0 mCi/mL, Siemens RN module): 98.0% | Radiochemical Purity ([4]; 9 h, ascorbic acid 50 mg/mL, 65.4 mCi/mL, GE MX module): 99.3% | Radiochemical Purity ([4]; 9 h, ascorbic acid 50 mg/mL, 115.9 mCi/mL, Siemens GN module): 96.0% | Radiochemical Purity ([4]; 12 h, ascorbic acid 30 mg/mL, 29.5 mCi/mL, Siemens GN module): 100.0% | Radiochemical Purity ([4]; 12 h, ascorbic acid 30 mg/mL, 68.0 mCi/mL, Eckert & Ziegler module): 96.1% | Radiochemical Purity ([4]; 12 h, ascorbic acid 50 mg/mL, 44.8 mCi/mL, Eckert & Ziegler module): 100.0% | Radiochemical Purity ([4]; 12 h, ascorbic acid 50 mg/mL, 47.0 mCi/mL, Siemens GN module): 99.5% | Radiochemical Purity ([4]; 12 h, ascorbic acid 50 mg/mL, 50.0 mCi/mL, Siemens RN module): 98.2% | Radiochemical Purity ([4]; 12 h, ascorbic acid 50 mg/mL, 65.4 mCi/mL, GE MX module): 96.9% | Radiochemical Purity ([4]; 12 h, ascorbic acid 50 mg/mL, 115.9 mCi/mL, Siemens GN module): 96.0% | Initial RCP and variability in RCP over time ([4]; over 30 to 50 mg/mL ascorbic acid and 30 to 115 mCi/mL): do not significantly change | RCP (FIG. 3) ([5]; ascorbic acid 20 mg/mL): overall decrease in RCP | Initial RCP and variability in RCP over time (FIG. 3) ([5]; ascorbic acid 200 to 50 mg/mL): do not significantly change
Compound: CC(C)(C)n1ncc(OCc2ccc(COCC[18F])cc2)c(Cl)c1=O [imaging agent, 2-tert-butyl-4-chloro-5-[4-(2-[18F]fluoro-ethoxymethyl)-benzyloxy]-2H-pyridazin-3-one]
Initial RCP and change in RCP over time (FIG. 1) [3]: markedly less initial stability and stability to storage
